Measured values from patent US20120029187A1, “HALOALKYLSULFONANILIDE DERIVATIVE” (Nissan Chemical Industries, Ltd., priority 2009, published 2012).

Legend:
Format in all cases: in vivo
ducksalad [1] = assay: Test Example 1: herbicidal effects in preemergence treatment under submerged conditions; details: dose 2.52 g/a
Summary of the method: (§1)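 Alluvial soil flooded to 4 cm depth; barnyardgrass, bulrush and ducksalad sown and 2.5-leaf rice seedlings transplanted. Same day, water-diluted emulsifiable concentrates applied to the water surface at set doses (g/a). Kept at 25–30 °C in greenhouse; effects scored 0–5 by mortality after three weeks.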

bulrush [2] = assay: as above; details: dose 2.52 g/a
Summary of the method: as §1

barnyardgrass [3] = assay: as above; details: dose 2.52 g/a
Summary of the method: as §1

transplanted rice = assay: Test Example 1: preemergence treatment under submerged conditions, effect on crop; details: dose 2.52 g/a
Summary of the method: as §1

sugar beet [4] = assay: Test Example 4: foliage treatment, effect on crop; details: dose 6.3 g/a, three weeks after the application
Text: (§2) Test on the Herbicidal Effect in Foliage Treatment
(§3) Sterilized diluvial soil was put in plastic boxes with a length of 21 cm, a width of 13 cm and a depth of 7 cm, and seeds of barnyardgrass, large crabgrass, giant foxtail, wild oat, blackgrass, velvetleaf, common ragweed, redroot pigweed, common lambsquater, posumbu knotweed, common chickweed, corn, soybean, rice, wheat and sugar beet were sown in spots and covered with an about 1.5 cm-thick soil layer. The boxes were placed in a greenhouse at 25 to 30° C. to grow the plants. After 14 days, emulsifiable concentrates containing compounds of the present invention formulated in accordance with Formulation Example 2 were uniformly applied to the foliage at predetermined doses through a small sprayer after diluted with water. Three weeks after the application, the herbicidal effects against various plants were determined on the same evaluation scale as in Test Example 1.
(§4) A: barnyardgrass, B: bulrush, C: ducksalad, D: large crabgrass, E: giant foxtail, F: wild oat, G: water foxtail, H: Italian ryegrass, I: velvetleaf, J: common ragweed, K: redroot pigweed, L: common lambsquater, M: posumbu knotweed, N: common chickweed, O: beadstraw, a: transplanted rice, b: corn, c: soybean, d: direct-seeded rice, e: wheat, f: sugar beet.
(§5) The doses (g/a) represents the amounts in g per 1 are (a) applied after adjustment of concentration adjustment.

corn [5] = assay: Test Example 4: foliage treatment, effect on crop; details: dose 6.3 g/a, three weeks after the application
Text: as §2, §3, §4, §5

wheat [6] = assay: Test Example 4: foliage treatment, effect on crop; details: dose 6.3 g/a, three weeks after the application
Text: as §2, §3, §4, §5

soybean [7] = assay: Test Example 4: foliage treatment, effect on crop; details: dose 6.3 g/a, three weeks after the application
Text: as §2, §3, §4, §5

direct-seeded rice [8] = assay: Test Example 4: foliage treatment, effect on crop; details: dose 6.3 g/a, three weeks after the application
Text: as §2, §3, §4, §5

ducksalad [9] = assay: Test Example 2: herbicidal effects during the vegetation period under submerged conditions; details: treatment during the vegetation period under submerged conditions; dose 2.52 g/a
Summary of the method: (§6)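 Barnyardgrass, bulrush and ducksalad were co-sown in alluvial soil flooded to 4 cm and grown in a greenhouse at 25 to 30° C. At the 1- or 2-leaf stage, water-diluted emulsifiable concentrates went onto the water surface at set doses (g/a). Herbicidal effect was scored three weeks later on a graded scale.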

bulrush [10] = assay: as above; details: treatment during the vegetation period under submerged conditions; dose 2.52 g/a
Summary of the method: as §6

barnyardgrass [11] = assay: as above; details: treatment during the vegetation period under submerged conditions; dose 2.52 g/a
Summary of the method: as §6

common chickweed [12] = assay: Test Example 3: herbicidal effects in soil treatment; details: dose 6.3 g/a
Summary of the method: (§7)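 Seeds were sown in sterilized diluvial soil and covered with about 1.5 cm of soil. Compounds, formulated as emulsifiable concentrates and diluted with water, were sprayed evenly over the soil surface at set doses in g/a. Herbicidal effect was scored on a rating scale three weeks later.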

barnyardgrass [13] = assay: as above; details: dose 6.3 g/a
Summary of the method: as §7

large crabgrass [14] = assay: as above; details: dose 6.3 g/a
Summary of the method: as §7

giant foxtail [15] = assay: as above; details: dose 6.3 g/a
Summary of the method: as §7

common ragweed [16] = assay: as above; details: dose 6.3 g/a
Summary of the method: as §7

water foxtail [17] = assay: as above; details: dose 6.3 g/a
Summary of the method: as §7

Italian ryegrass [18] = assay: as above; details: dose 6.3 g/a
Summary of the method: as §7

common lambsquater [19] = assay: as above; details: dose 6.3 g/a
Summary of the method: as §7

wild oat [20] = assay: as above; details: dose 6.3 g/a
Summary of the method: as §7

sugar beet [21] = assay: Test Example 3: soil treatment, effect on crop; details: dose 6.3 g/a
Text: (§8) Test on the Herbicidal Effects in Soil Treatment
as §3, with “chickweed” for “chickweed,”, “Emulsifiable” for “The boxes were placed in a greenhouse at 25 to 30° C. to grow the plants. After 14 days, emulsifiable”, “soil surfaces” for “foliage”, “dilute” for “diluted”
as §4, §5

corn [22] = assay: Test Example 3: soil treatment, effect on crop; details: dose 6.3 g/a
Text: as §8
as §3, with “chickweed” for “chickweed,”, “Emulsifiable” for “The boxes were placed in a greenhouse at 25 to 30° C. to grow the plants. After 14 days, emulsifiable”, “soil surfaces” for “foliage”, “dilute” for “diluted”
as §4, §5

wheat [23] = assay: Test Example 3: soil treatment, effect on crop; details: dose 6.3 g/a
Text: as §8
as §3, with “chickweed” for “chickweed,”, “Emulsifiable” for “The boxes were placed in a greenhouse at 25 to 30° C. to grow the plants. After 14 days, emulsifiable”, “soil surfaces” for “foliage”, “dilute” for “diluted”
as §4, §5

soybean [24] = assay: Test Example 3: soil treatment, effect on crop; details: dose 6.3 g/a
Text: as §8
as §3, with “chickweed” for “chickweed,”, “Emulsifiable” for “The boxes were placed in a greenhouse at 25 to 30° C. to grow the plants. After 14 days, emulsifiable”, “soil surfaces” for “foliage”, “dilute” for “diluted”
as §4, §5

direct-seeded rice [25] = assay: Test Example 3: soil treatment, effect on crop; details: dose 6.3 g/a
Text: as §8
as §3, with “chickweed” for “chickweed,”, “Emulsifiable” for “The boxes were placed in a greenhouse at 25 to 30° C. to grow the plants. After 14 days, emulsifiable”, “soil surfaces” for “foliage”, “dilute” for “diluted”
as §4, §5

common chickweed [26] = assay: Test Example 4: herbicidal effect in foliage treatment; details: dose 6.3 g/a, three weeks after the application
Summary of the method: (§9)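 Weeds and crops sown in sterilized diluvial soil under ~1.5 cm cover and grown in greenhouse at 25 to 30° C. At 14 days, water-diluted emulsifiable concentrate sprayed onto foliage at set doses (g/a); herbicidal effect scored on a rating scale three weeks after application.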

barnyardgrass [27] = assay: as above; details: dose 6.3 g/a, three weeks after the application
Summary of the method: as §9

large crabgrass [28] = assay: as above; details: dose 6.3 g/a, three weeks after the application
Summary of the method: as §9

giant foxtail [29] = assay: as above; details: dose 6.3 g/a, three weeks after the application
Summary of the method: as §9

common ragweed [30] = assay: as above; details: dose 6.3 g/a, three weeks after the application
Summary of the method: as §9

beadstraw = assay: as above; details: dose 6.3 g/a, three weeks after the application
Summary of the method: as §9

water foxtail [31] = assay: as above; details: dose 6.3 g/a, three weeks after the application
Summary of the method: as §9

Italian ryegrass [32] = assay: as above; details: dose 6.3 g/a, three weeks after the application
Summary of the method: as §9

common lambsquater [33] = assay: as above; details: dose 6.3 g/a, three weeks after the application
Summary of the method: as §9

wild oat [34] = assay: as above; details: dose 6.3 g/a, three weeks after the application
Summary of the method: as §9

CCOC(=O)N(c1ccccc1CN1CCOCCC1=O)S(=O)(=O)C(F)(F)F [Compound V-2]
C: ducksalad, herbicidal effect (evaluation scale 0-5) (ducksalad [1]): 5 (mortality of 90% or above (nearly complete death)) | B: bulrush, herbicidal effect (evaluation scale 0-5) (bulrush [2]): 5 (mortality of 90% or above (nearly complete death)) | A: barnyardgrass, herbicidal effect (evaluation scale 0-5) (barnyardgrass [3]): 5 (mortality of 90% or above (nearly complete death)) | a: transplanted rice, effect on crop (evaluation scale 0-5) (transplanted rice): 0 (mortality of less than 5% (almost ineffective)) | f: sugar beet, effect on crop (sugar beet [4]): 3 (mortality of at least 40% and less than 70%) | b: corn, effect on crop (corn [5]): 1 (mortality of at least 5% and less than 20%) | e: wheat, effect on crop (wheat [6]): 0 (mortality of less than 5% (almost ineffective)) | c: soybean, effect on crop (soybean [7]): 3 (mortality of at least 40% and less than 70%) | d: direct-seeded rice, effect on crop (direct-seeded rice [8]): 3 (mortality of at least 40% and less than 70%) | C: ducksalad, herbicidal effect (evaluation scale 0-5) (ducksalad [9]): 5 (mortality of 90% or above (nearly complete death)) | B: bulrush, herbicidal effect (evaluation scale 0-5) (bulrush [10]): 5 (mortality of 90% or above (nearly complete death)) | A: barnyardgrass, herbicidal effect (evaluation scale 0-5) (barnyardgrass [11]): 4 (mortality of at least 70% and less than 90%) | herbicidal effect, N: common chickweed (common chickweed [12]): 5 (mortality of 90% or above (nearly complete death)) | herbicidal effect, A: barnyardgrass (barnyardgrass [13]): 4 (mortality of at least 70% and less than 90%) | herbicidal effect, D: large crabgrass (large crabgrass [14]): 1 (mortality of at least 5% and less than 20%) | herbicidal effect, E: giant foxtail (giant foxtail [15]): 3 (mortality of at least 40% and less than 70%) | herbicidal effect, J: common ragweed (common ragweed [16]): 5 (mortality of 90% or above (nearly complete death)) | herbicidal effect, G: water foxtail (water foxtail [17]): 5 (mortality of 90% or above (nearly complete death)) | herbicidal effect, H: Italian ryegrass (Italian ryegrass [18]): 0 (mortality of less than 5% (almost ineffective)) | herbicidal effect, L: common lambsquater (common lambsquater [19]): 5 (mortality of 90% or above (nearly complete death)) | herbicidal effect, F: wild oat (wild oat [20]): 0 (mortality of less than 5% (almost ineffective)) | effect on crop, f: sugar beet (sugar beet [21]): 4 (mortality of at least 70% and less than 90%) | effect on crop, b: corn (corn [22]): 0 (mortality of less than 5% (almost ineffective)) | effect on crop, e: wheat (wheat [23]): 0 (mortality of less than 5% (almost ineffective)) | effect on crop, c: soybean (soybean [24]): 0 (mortality of less than 5% (almost ineffective)) | effect on crop, d: direct-seeded rice (direct-seeded rice [25]): 0 (mortality of less than 5% (almost ineffective)) | N: common chickweed, herbicidal effect (common chickweed [26]): 4 (mortality of at least 70% and less than 90%) | A: barnyardgrass, herbicidal effect (barnyardgrass [27]): 5 (mortality of 90% or above (nearly complete death)) | D: large crabgrass, herbicidal effect (large crabgrass [28]): 2 (mortality of at least 20% and less than 40%) | E: giant foxtail, herbicidal effect (giant foxtail [29]): 4 (mortality of at least 70% and less than 90%) | J: common ragweed, herbicidal effect (common ragweed [30]): 5 (mortality of 90% or above (nearly complete death)) | O: beadstraw, herbicidal effect (beadstraw): 3 (mortality of at least 40% and less than 70%) | G: water foxtail, herbicidal effect (water foxtail [31]): 5 (mortality of 90% or above (nearly complete death)) | H: Italian ryegrass, herbicidal effect (Italian ryegrass [32]): 0 (mortality of less than 5% (almost ineffective)) | L: common lambsquater, herbicidal effect (common lambsquater [33]): 5 (mortality of 90% or above (nearly complete death)) | F: wild oat, herbicidal effect (wild oat [34]): 0 (mortality of less than 5% (almost ineffective))
